Where two headings read alike, the source gives them in different places.
How the values were obtained:
bovine milk XO [1] = molecular target: T1, bovine milk XO (Bos taurus, UniProt P80457); experiment: XO inhibitory activity assay (uric acid formation from xanthine, absorbance at 295 nm); format: biochemical; conditions: for inhibition at 5 µM: read-out: XO inhibitory activity (%); for inhibition at 25 µM: read-out: Xanthine Oxidase Inhibition %
T1 construct: The bovine milk XO activity was assayed; from tissue; host or cells: bovine milk
T1 sequence (P80457 whole entry): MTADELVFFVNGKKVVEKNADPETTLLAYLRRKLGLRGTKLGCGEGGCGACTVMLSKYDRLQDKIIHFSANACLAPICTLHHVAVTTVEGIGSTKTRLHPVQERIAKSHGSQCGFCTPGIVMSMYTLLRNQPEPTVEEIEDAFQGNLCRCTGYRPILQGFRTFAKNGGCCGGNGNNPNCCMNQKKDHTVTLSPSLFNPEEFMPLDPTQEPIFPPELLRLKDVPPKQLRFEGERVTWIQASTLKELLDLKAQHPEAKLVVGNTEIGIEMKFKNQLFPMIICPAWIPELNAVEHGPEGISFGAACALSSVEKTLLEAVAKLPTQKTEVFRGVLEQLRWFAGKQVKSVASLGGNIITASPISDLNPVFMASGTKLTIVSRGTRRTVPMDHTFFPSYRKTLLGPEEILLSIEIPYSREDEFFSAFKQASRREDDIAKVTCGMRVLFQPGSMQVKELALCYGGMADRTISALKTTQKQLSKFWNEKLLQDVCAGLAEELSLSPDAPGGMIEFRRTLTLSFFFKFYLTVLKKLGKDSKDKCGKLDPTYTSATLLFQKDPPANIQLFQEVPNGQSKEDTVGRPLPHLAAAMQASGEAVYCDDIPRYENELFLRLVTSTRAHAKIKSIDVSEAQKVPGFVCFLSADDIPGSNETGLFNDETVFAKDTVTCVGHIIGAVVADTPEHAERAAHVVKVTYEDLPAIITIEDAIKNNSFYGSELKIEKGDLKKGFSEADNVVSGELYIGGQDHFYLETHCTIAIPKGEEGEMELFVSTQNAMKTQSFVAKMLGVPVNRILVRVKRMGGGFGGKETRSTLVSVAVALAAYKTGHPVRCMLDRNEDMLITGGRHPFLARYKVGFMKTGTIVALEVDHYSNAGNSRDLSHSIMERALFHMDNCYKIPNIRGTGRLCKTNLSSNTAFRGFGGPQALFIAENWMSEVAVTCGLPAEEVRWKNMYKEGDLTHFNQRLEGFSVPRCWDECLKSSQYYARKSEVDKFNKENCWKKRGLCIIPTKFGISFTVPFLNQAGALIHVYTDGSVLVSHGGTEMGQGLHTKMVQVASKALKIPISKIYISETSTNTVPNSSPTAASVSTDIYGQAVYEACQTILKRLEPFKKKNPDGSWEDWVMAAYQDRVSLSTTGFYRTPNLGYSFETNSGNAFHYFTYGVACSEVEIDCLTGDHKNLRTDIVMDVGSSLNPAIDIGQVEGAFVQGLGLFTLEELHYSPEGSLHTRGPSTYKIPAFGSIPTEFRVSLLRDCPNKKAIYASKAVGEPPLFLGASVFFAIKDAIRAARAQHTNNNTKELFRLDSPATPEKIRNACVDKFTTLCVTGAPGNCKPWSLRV
Description: The bovine milk XO activity was assayed following the previously published procedures. […] First, 125 µL of 100 mM sodium pyrophosphate buffer (HCl, pH 7.5), 30 µL of 0.1 units XO enzyme, 5 µL of test samples, and 40 µL of the substrate (0.5 mM xanthine) were mixed. […] The inhibition mechanism and constants (Km, Vmax, and Ki) of a binding site for the inhibitor to a free enzyme (KI) or an enzyme–substrate complex (KIS) were determined using the Lineweaver–Burk and Dixon plots.
The ARE was prepared using five different polar solvents (EtOH, 70% EtOH, 50% EtOH, 30% EtOH, and H2O) and tested for their XO inhibitory activity.

bovine milk XO [2] = molecular target: T1, bovine milk XO; experiment: XO kinetic assay (Lineweaver–Burk and Dixon plots, reversibility, preincubation); format: biochemical; conditions: for Xanthine Oxidase Kinetic Mode: Lineweaver–Burk and Dixon plots
Description: The bovine milk XO activity was assayed following the previously published procedures. […] First, 125 µL of 100 mM sodium pyrophosphate buffer (HCl, pH 7.5), 30 µL of 0.1 units XO enzyme, 5 µL of test samples, and 40 µL of the substrate (0.5 mM xanthine) were mixed. The reaction mixture (200 µL) in a 300 µL well plate was incubated at 37 °C and the UV absorbance at 295 nm was screened every 1 min for 15 min. The inhibition mechanism and constants (Km, Vmax, and Ki) of a binding site for the inhibitor to a free enzyme (KI) or an enzyme–substrate complex (KIS) were determined using the Lineweaver–Burk and Dixon plots. 1/V = Km/Vmax (1 + [I]/KI) 1/S + 1/Vmax(1) Slope = Km/KI Vmax [I] + Km/Vmax (2) Intercept = 1/KIS Vmax [I] + 1/Vmax (3) […]
The kinetic behaviors of the oxidation of xanthine catalyzed by XO at different concentrations of inhibitor were analyzed using both Lineweaver–Burk (Figure 3A) and Dixon plots (Figure 3B). […] The two possible inhibition mechanisms were investigated to reveal which one gives this kinetic profile. The mechanisms of mixed inhibition can be investigated through the changes of the substrate with inhibitor followed by measurements of the residual enzyme–substrate complex. Parameters of free enzyme (KI) and the enzyme–substrate complex (KIS) can be fitted to Equations (2) and (3). […] Further analysis of the progress of the inhibition was undertaken by preincubating the enzyme with 7, prior to the addition of the substrate.

[3] = isolated compounds and positive controls, read-out: Xanthine Oxidase IC50
[4] = sample concentration 25 µM for the compound

Oc1ncnc2[nH]ncc12 [Allopurinol, reference compound]
inhibition at 5 µM (bovine milk XO [1]): 51.9%
inhibition at 25 µM (bovine milk XO [1]): 82.5 ± 1.2%
Xanthine Oxidase Kinetic Mode (bovine milk XO [2]): Competitive

O=c1cc(-c2ccc(O)cc2)oc2cc(O)cc(O)c12 [Apigenin, reference compound]
inhibition at 5 µM (bovine milk XO [1]; concentration of 5 μM): 67.2%
IC50 (bovine milk XO [1]; [3]): 0.87 µM
inhibition at 25 µM (bovine milk XO [1]; [4]): 88.6 ± 1.2%
Xanthine Oxidase Kinetic Mode (bovine milk XO [2]): Competitive

O=C(/C=C/c1ccc(O)c(O)c1)O[C@H](Cc1ccc(O)c(O)c1)C(=O)O [Compound 1, Rosmarinic acid]
IC50 (bovine milk XO [1]; [3]): > 100 µM
inhibition at 25 µM (bovine milk XO [1]; [4]): 27.2 ± 1.5%

O=C(/C=C/c1ccc(O)c2c1[C@H](C(=O)O[C@H](Cc1ccc(O)c(O)c1)C(=O)O)[C@@H](c1ccc(O)c(O)c1)O2)O[C@H](Cc1ccc(O)c(O)c1)C(=O)O [Compound 2, Salvianolic acid B]
IC50 (bovine milk XO [1]): 30.7 ± 0.8 µM
inhibition at 25 µM (bovine milk XO [1]; [4]): 46.1 ± 1.2%

COc1ccc(-c2cc(=O)c3c(O)cc(O[C@@H]4O[C@H](CO)[C@@H](O)[C@H](O)[C@H]4O)cc3o2)cc1 [Compound 3, Tilianin]
IC50 (bovine milk XO [1]; [3]): 26.4 ± 0.6 µM
inhibition at 25 µM (bovine milk XO [1]; [4]): 49.3 ± 1.5%

COc1ccc(-c2cc(=O)c3c(O)cc(OC4OC(COC(=O)CC(=O)O)C(O)C(O)C4O)cc3o2)cc1 [Compound 4, Acacetin 7-O-(6-O-malonyl)-β-D-glucoside]
IC50 (bovine milk XO [1]; [3]): 80.6 ± 0.7 µM
inhibition at 25 µM (bovine milk XO [1]; [4]): 36.2 ± 1.4%

COc1ccc(-c2cc(=O)c3c(O)cc(OC4OC(CO)C(O)C(O)C4OC(C)=O)cc3o2)cc1 [Compound 5, Acacetin 7-O-(2″-O-acetyl)-β-D-glucoside]
IC50 (bovine milk XO [1]; [3]): 74.5 ± 0.9 µM
inhibition at 25 µM (bovine milk XO [1]; [4]): 40.7 ± 1.5%

COc1ccc(-c2cc(=O)c3c(O)cc(OC4OC(COC(=O)CC(=O)O)C(O)C(O)C4OC(C)=O)cc3o2)cc1 [Compound 6, Acacetin 7-O-(2″-O-acetyl-6″-O-malonyl)-β-D-glucoside]
IC50 (bovine milk XO [1]; [3]): > 100 µM
inhibition at 25 µM (bovine milk XO [1]; [4]): 26.2 ± 0.9%

COc1ccc(-c2cc(=O)c3c(O)cc(O)cc3o2)cc1 [Compound 7, Acacetin]
inhibition at 5 µM (bovine milk XO [1]; concentration of 5 μM): 75.5%
IC50 (bovine milk XO [1]; [3]): 0.58 ± 0.5 µM
inhibition at 25 µM (bovine milk XO [1]; [4]): 94.5 ± 1.4%
Ki (bovine milk XO [2]; Dixon plots, read-out: Xanthine Oxidase Ki): 0.61 µM
Xanthine Oxidase Kinetic Mode (bovine milk XO [2]): mixed type I
Reversibility of XO inhibition (bovine milk XO [2]; activity versus enzyme concentration at 0-1.56 μM inhibitor): reversible inhibition
Inhibition as a function of preincubation time (bovine milk XO [2]; enzyme preincubated with inhibitor at 0.2 μM): time-dependent inhibitory behavior
KIS (inhibitor binding to enzyme–substrate complex) (bovine milk XO [2]; secondary plot of intercept, Equation (3)): 1.14 µM
Ki (bovine milk XO [2]; secondary plot of slope, Equation (2), read-out: KI (inhibitor binding to free enzyme)): 0.57 µM

— paper PMC9914411, “Potent Xanthine Oxidase Inhibitory Activity of Constituents of Agastache rugosa (Fisch. and C.A.Mey.) Kuntze” (Foods, 2023)
